Consider one compound from patent US11020394B2, “Compositions and methods for treating inflammatory bowel disease using a combination therapy of small molecule inhibitors of C—C chemokine receptor type 9 (CCR9) and anti-α4β7 integrin blocking antibodies” (ChemoCentryx, Inc., priority 2014, dated 2021).

The experiment concerns in vitro differentiated human CCR9+α4β7+ T cells. In words: Static binding (adhesion) assay of in vitro differentiated T cells on MAdCAM-1-Fc coated plates. In kind it is cell-based. Particulars: 1 μM CCX507, with hCCL25, MAdCAM-1-Fc coated plates, FIG. 1B. As for the experimental part: Adhesion assays were performed as follows. Human lymphocytes were isolated from total PBMCs and activated with α-CD3ε/α-CD28 (1 μg/mL; R&D Systems) in the presence of 1 μM retinoic acid (Sigma) and 1 ng/mL human IL12 (R&D Systems). In vitro activated T cells were further expanded for 5 days in the presence of 1 μM retinoic acid (RA) and 1 ng/mL human IL12. The expanded cells were stained with an anti CCR9 APC conjugated antibody (Cat. No. 248621; R&D Systems) and a conjugated anti-α4β7 integrin antibody (Act-1). The stained cells were analyzed by flow cytometry. Expression of CCR9 and α4β7 integrin in the expanded T cells was depicted as a 2-parameter scatterplot in FIG. 1A.
In vitro activated T cells were added to 96-well plate coated overnight with 0.3 μg/mL MAdCAM-1-Fc fusion protein (R&D Systems) in the presence of the following conditions: DMSO only, 500 ng human CCL25 (hCCL25; a CCR9 ligand) only, 1 μM CCX507 (a CCR9 small molecule inhibitor) only, or 500 ng hCCL25 and 1 μM CCX507. Adherent cells were quantified using CyQUANT® Cell Proliferation Assays (Thermo Fisher).

On to `Cc1cc(NS(=O)(=O)c2ccc(C(C)(C)C)c(F)c2)n(-c2ccc(N)c3ncccc23)n1` [CCX507], for which the “binding of RA-differentiated human T cells to MAdCAM-1 (adherent cells quantified using CyQUANT, RFU)” value was “limits the binding of RA-differentiated human T cells to MAdCAM-1”.
